Test results from patent publication US20260022142A1, “MACROCYCLIC IMMUNOMODULATORS” (Bristol-Myers Squibb Company, priority 2022, published 2026).
Bridge positions count the residues as written; N and C are the ends. Square brackets hold non-standard residues; d marks the D form. Peptide text beside a SMILES is read from it. * marks the point of attachment. Phe(4-COOH) = N[C@@H](Cc1ccc(C(=O)O)cc1)C(=O)O; Bip = N[C@@H](Cc1ccc(-c2ccccc2)cc1)C(=O)O; Phe(3-Me) = Cc1cccc(C[C@H](N)C(=O)O)c1; Ala(cPr) = N[C@@H](CC1CC1)C(=O)O; 4Pal = N[C@@H](Cc1ccncc1)C(=O)O; Cha = N[C@@H](CC1CCCCC1)C(=O)O; Cit = NC(=O)NCCC[C@H](N)C(=O)O; Cba = N[C@@H](CC1CCC1)C(=O)O; Carboxymethyl = O=C(O)C*; Orn = NCCC[C@H](N)C(=O)O; Aun = NCCCCCCCCCCC(=O)O; Dab = NCC[C@H](N)C(=O)O; Dap = NC[C@H](N)C(=O)O; Ac3c = NC1(C(=O)O)CC1

Biological target: T1, PD-1/PD-L1 interaction (PE-labeled human PD-L1-Ig binding to Jurkat cell line over-expressing human PD-1) (Homo sapiens, UniProt Q15116)
T1 construct: expressed in transfected cells; host or cells: Jurkat
Experiment: Jurkat-PD-1 Cell Binding High-Content Screening Assay (CBA)
Format: cell-based
Settings: Jurkat cell line over-expressing human PD-1; PE-labeled PD-L1-Ig 20 nM final; read-out: Jurkat hPD1-PDL1 IC50
Procedure, shortened: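 Read-out is high-content imaging of cell-bound phycoerythrin-tagged PD-L1-Ig on fixed, Hoechst-counterstained Jurkat cells that over-express human PD-1. Compound exposure lasts 2 h at 37° C before the labeled ligand (20 nM final) is added for a further hour.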

T1 sequence (Q15116 25-288): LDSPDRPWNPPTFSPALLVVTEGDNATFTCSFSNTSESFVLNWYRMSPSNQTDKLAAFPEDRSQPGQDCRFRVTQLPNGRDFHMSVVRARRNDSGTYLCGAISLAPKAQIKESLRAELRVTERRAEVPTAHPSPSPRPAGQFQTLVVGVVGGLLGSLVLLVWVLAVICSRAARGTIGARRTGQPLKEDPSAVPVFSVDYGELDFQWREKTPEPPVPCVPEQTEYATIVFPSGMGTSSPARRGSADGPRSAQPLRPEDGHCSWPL

SMILES	IC50
Cc1cccc(C[C@@H]2NC(=O)[C@H](CC(=O)O)NC(=O)[C@H](Cc3ccc(OCC(=O)O)cc3)NC(=O)[C@H](CCCNC(=N)N)NC(=O)CSC[C@@H](C(=O)N[C@@H](CCN)C(=O)NCCCCCCCCCCC(=O)O)NC(=O)[C@H]([C@@H](C)O)NC(=O)[C@H](C(C)C)NC(=O)[C@H](CC3CCCCC3)NC(=O)[C@H](CCN)NC(=O)[C@@H](CC(C)C)NC(=O)[C@H](CCCN)NC(=O)[C@H](Cc3ccc(OCC(=O)O)cc3)NC(=O)[C@H](Cc3ccc(-c4ccccc4)cc3)NC(=O)[C@H](Cc3ccc(OCC(=O)O)cc3)NC2=O)c1 [Compound 2157] ({CH2CO}-RY(Carboxymethyl)D[Phe(3-Me)]Y(Carboxymethyl)[Bip]Y(Carboxymethyl)[Orn][dL][Dab][Cha]VTC[Dab][Aun]-OH; thioether N-14)	97.8 nM
Cc1cccc(C[C@@H]2NC(=O)[C@H](CC(=O)O)NC(=O)[C@H](Cc3ccc(OCC(=O)O)cc3)NC(=O)[C@H](CCCNC(=N)N)NC(=O)CN(C)C[C@@H](C(=O)N[C@@H](CCN)C(=O)NCCCCCCCCCCC(=O)O)NC(=O)[C@H]([C@@H](C)O)NC(=O)[C@H](C(C)C)NC(=O)[C@H](CC3CCCCC3)NC(=O)[C@H](CCN)NC(=O)[C@@H](CC(C)C)NC(=O)[C@H](CCCN)NC(=O)[C@H](Cc3ccc(OCC(=O)O)cc3)NC(=O)[C@H](Cc3ccc(-c4ccccc4)cc3)NC(=O)[C@H](Cc3ccc(OCC(=O)O)cc3)NC2=O)c1 [Compound 2159]	96.1 nM
Cc1cccc(C[C@@H]2NC(=O)[C@H](CC(=O)O)NC(=O)[C@H](Cc3ccc(OCC(=O)O)cc3)NC(=O)[C@H](CN)NC(=O)CNC[C@@H](C(=O)N[C@@H](CCN)C(=O)NCCCCCCCCCCC(=O)O)NC(=O)[C@H]([C@@H](C)O)NC(=O)[C@H](C(C)C)NC(=O)[C@H](CC3CCCCC3)NC(=O)[C@H](CCN)NC(=O)[C@@H](CC(C)C)NC(=O)[C@H](CCCN)NC(=O)[C@H](CCCNC(N)=O)NC(=O)[C@H](Cc3ccc(-c4ccccc4)cc3)NC(=O)[C@H](C(C)C)NC2=O)c1 [Compound 2160]	42.6 nM
Cc1cccc(C[C@@H]2NC(=O)[C@H](CC(=O)O)NC(=O)[C@H](Cc3ccc(OCC(=O)O)cc3)NC(=O)[C@H](CCCNC(=N)N)NC(=O)CSC[C@@H](C(=O)NC3(C(=O)NCCCCCCCCCCC(=O)O)CC3)NC(=O)[C@H]([C@@H](C)O)NC(=O)[C@H](C(C)C)NC(=O)[C@H](CC3CCCCC3)NC(=O)[C@H](CCN)NC(=O)[C@@H](CC(C)C)NC(=O)[C@H](CCCNC(N)=O)NC(=O)[C@H](Cc3ccc(OCC(=O)O)cc3)NC(=O)[C@H](Cc3ccc(-c4ccccc4)cc3)NC(=O)[C@H](Cc3ccc(OCC(=O)O)cc3)NC2=O)c1 [Compound 2162] ({CH2CO}-RY(Carboxymethyl)D[Phe(3-Me)]Y(Carboxymethyl)[Bip]Y(Carboxymethyl)[Cit][dL][Dab][Cha]VTC[Ac3c][Aun]-OH; thioether N-14)	12.9 nM
Cc1cccc(C[C@@H]2NC(=O)[C@H](CC(=O)O)NC(=O)[C@H](Cc3ccc(OCC(=O)O)cc3)NC(=O)[C@H](CCCNC(=N)N)NC(=O)CSC[C@@H](C(=O)NC3(C(=O)NCCCCCCCCCCC(=O)O)CC3)NC(=O)[C@H]([C@@H](C)O)NC(=O)[C@H](C(C)C)NC(=O)[C@H](CC3CCC3)NC(=O)[C@H](CCN)NC(=O)[C@@H](CC(C)C)NC(=O)[C@H](CCCN)NC(=O)[C@H](Cc3ccc(OCC(=O)O)cc3)NC(=O)[C@H](Cc3ccc(-c4ccccc4)cc3)NC(=O)[C@H](Cc3ccc(OCC(=O)O)cc3)NC2=O)c1 [Compound 2164] ({CH2CO}-RY(Carboxymethyl)D[Phe(3-Me)]Y(Carboxymethyl)[Bip]Y(Carboxymethyl)[Orn][dL][Dab][Cba]VTC[Ac3c][Aun]-OH; thioether N-14)	33.3 nM
Cc1cccc(C[C@@H]2NC(=O)[C@H](CC(=O)O)NC(=O)[C@H](Cc3ccc(C(=O)O)cc3)NC(=O)[C@H](Cc3ccncc3)NC(=O)CSC[C@@H](C(=O)NC3(C(=O)NCCCCCCCCCCC(=O)O)CC3)NC(=O)[C@H]([C@@H](C)O)NC(=O)[C@H](C(C)C)NC(=O)[C@H](CC3CCCCC3)NC(=O)[C@H](CCN)NC(=O)[C@@H](CC(C)C)NC(=O)[C@H](CCCN)NC(=O)[C@H](Cc3ccc(OCC(=O)O)cc3)NC(=O)[C@H](Cc3ccc(-c4ccccc4)cc3)NC(=O)[C@H](Cc3ccc(OCC(=O)O)cc3)NC2=O)c1 [Compound 2167] ({CH2CO}-[4Pal][Phe(4-COOH)]D[Phe(3-Me)]Y(Carboxymethyl)[Bip]Y(Carboxymethyl)[Orn][dL][Dab][Cha]VTC[Ac3c][Aun]-OH; thioether N-14)	9.4 nM
Cc1cccc(C[C@@H]2NC(=O)[C@H](CC(=O)O)NC(=O)[C@H](Cc3ccc(OCC(=O)O)cc3)NC(=O)[C@H](CCCNC(=N)N)NC(=O)CSC[C@@H](C(=O)N[C@@H](CCN)C(=O)NCCCCCCCCCCC(=O)O)NC(=O)[C@H]([C@@H](C)O)NC(=O)[C@H](C(C)C)NC(=O)[C@H](CC3CC3)NC(=O)[C@H](CCN)NC(=O)[C@@H](CC(C)C)NC(=O)[C@H](CCCN)NC(=O)[C@H](Cc3ccc(OCC(=O)O)cc3)NC(=O)[C@H](Cc3ccc(-c4ccccc4)cc3)NC(=O)[C@H](Cc3ccc(OCC(=O)O)cc3)NC2=O)c1 [Compound 2169] ({CH2CO}-RY(Carboxymethyl)D[Phe(3-Me)]Y(Carboxymethyl)[Bip]Y(Carboxymethyl)[Orn][dL][Dab][Ala(cPr)]VTC[Dab][Aun]-OH; thioether N-14)	14.3 nM

Continued by falling IC50, values first:

IC50	SMILES
129 nM	Cc1cccc(C[C@@H]2NC(=O)[C@H](CC(=O)O)NC(=O)[C@H](Cc3ccc(OCC(=O)O)cc3)NC(=O)[C@H](CN)NC(=O)CN[C@@H](C(=O)N[C@@H](CCN)C(=O)NCCCCCCCCCCC(=O)O)CNC(=O)[C@H]([C@@H](C)O)NC(=O)[C@H](C(C)C)NC(=O)[C@H](CC3CCCCC3)NC(=O)[C@H](CCN)NC(=O)[C@@H](CC(C)C)NC(=O)[C@H](CCCN)NC(=O)[C@H](CCCNC(N)=O)NC(=O)[C@H](Cc3ccc(-c4ccccc4)cc3)NC(=O)[C@H](C(C)C)NC2=O)c1 [Compound 2158]
93 nM	Cc1cccc(C[C@@H]2NC(=O)[C@H](CC(=O)O)NC(=O)[C@H](Cc3ccc(OCC(=O)O)cc3)NC(=O)[C@H](CCCNC(=N)N)NC(=O)CSC[C@@H](C(=O)NC3(C(=O)NCCCCCCCCCCC(=O)O)CC3)NC(=O)[C@H]([C@@H](C)O)NC(=O)[C@H](C(C)C)NC(=O)[C@H](CC3CC3)NC(=O)[C@H](CCN)NC(=O)[C@@H](CC(C)C)NC(=O)[C@H](CCCN)NC(=O)[C@H](Cc3ccc(OCC(=O)O)cc3)NC(=O)[C@H](Cc3ccc(-c4ccccc4)cc3)NC(=O)[C@H](Cc3ccc(OCC(=O)O)cc3)NC2=O)c1 [Compound 2163] ({CH2CO}-RY(Carboxymethyl)D[Phe(3-Me)]Y(Carboxymethyl)[Bip]Y(Carboxymethyl)[Orn][dL][Dab][Ala(cPr)]VTC[Ac3c][Aun]-OH; thioether N-14)
26.7 nM	Cc1cccc(C[C@@H]2NC(=O)[C@H](CC(=O)O)NC(=O)[C@H](Cc3ccc(C(=O)O)cc3)NC(=O)[C@H](Cc3ccncc3)NC(=O)CSC[C@@H](C(=O)NC3(C(=O)NCCCCCCCCCCC(=O)O)CC3)NC(=O)[C@H]([C@@H](C)O)NC(=O)[C@H](C(C)C)NC(=O)[C@H](CC(C)C)NC(=O)[C@H](CCN)NC(=O)[C@@H](CC(C)C)NC(=O)[C@H](CCCN)NC(=O)[C@H](Cc3ccc(OCC(=O)O)cc3)NC(=O)[C@H](Cc3ccc(-c4ccccc4)cc3)NC(=O)[C@H](Cc3ccc(OCC(=O)O)cc3)NC2=O)c1 [Compound 2168] ({CH2CO}-[4Pal][Phe(4-COOH)]D[Phe(3-Me)]Y(Carboxymethyl)[Bip]Y(Carboxymethyl)[Orn][dL][Dab]LVTC[Ac3c][Aun]-OH; thioether N-14)
21.8 nM	Cc1cccc(C[C@@H]2NC(=O)[C@H](CC(=O)O)NC(=O)[C@H](Cc3ccc(C(=O)O)cc3)NC(=O)[C@H](CN)NC(=O)CSC[C@@H](C(=O)N[C@@H](CCN)C(=O)NCCCCCCCCCCC(=O)O)NC(=O)[C@H]([C@@H](C)O)NC(=O)[C@H](C(C)C)NC(=O)[C@H](CC3CCCCC3)NC(=O)[C@H](CCN)NC(=O)[C@@H](CC(C)C)NC(=O)[C@H](CCCN)NC(=O)[C@H](Cc3ccc(OCC(=O)O)cc3)NC(=O)[C@H](Cc3ccc(-c4ccccc4)cc3)NC(=O)[C@H](Cc3ccc(OCC(=O)O)cc3)NC2=O)c1 [Compound 2165] ({CH2CO}-[Dap][Phe(4-COOH)]D[Phe(3-Me)]Y(Carboxymethyl)[Bip]Y(Carboxymethyl)[Orn][dL][Dab][Cha]VTC[Dab][Aun]-OH; thioether N-14)
12.9 nM	Cc1cccc(C[C@@H]2NC(=O)[C@H](CC(=O)O)NC(=O)[C@H](Cc3ccc(OCC(=O)O)cc3)NC(=O)[C@H](CCCNC(=N)N)NC(=O)CSC[C@@H](C(=O)NC3(C(=O)NCCCCCCCCCCC(=O)O)CC3)NC(=O)[C@H]([C@@H](C)O)NC(=O)[C@H](C(C)C)NC(=O)[C@H](CC3CCCCC3)NC(=O)[C@H](CCN)NC(=O)[C@@H](CC(C)C)NC(=O)[C@H](CCN)NC(=O)[C@H](Cc3ccc(OCC(=O)O)cc3)NC(=O)[C@H](Cc3ccc(-c4ccccc4)cc3)NC(=O)[C@H](Cc3ccc(OCC(=O)O)cc3)NC2=O)c1 [Compound 2161] ({CH2CO}-RY(Carboxymethyl)D[Phe(3-Me)]Y(Carboxymethyl)[Bip]Y(Carboxymethyl)[Dab][dL][Dab][Cha]VTC[Ac3c][Aun]-OH; thioether N-14)
11.8 nM	Cc1cccc(C[C@@H]2NC(=O)[C@H](CC(=O)O)NC(=O)[C@H](Cc3ccc(C(=O)O)cc3)NC(=O)[C@H](CCCNC(=N)N)NC(=O)CSC[C@@H](C(=O)N[C@@H](CCN)C(=O)NCCCCCCCCCCC(=O)O)NC(=O)[C@H]([C@@H](C)O)NC(=O)[C@H](C(C)C)NC(=O)[C@H](CC3CCCCC3)NC(=O)[C@H](CCN)NC(=O)[C@@H](CC(C)C)NC(=O)[C@H](CCCN)NC(=O)[C@H](Cc3ccc(OCC(=O)O)cc3)NC(=O)[C@H](Cc3ccc(-c4ccccc4)cc3)NC(=O)[C@H](Cc3ccc(OCC(=O)O)cc3)NC2=O)c1 [Compound 2166] ({CH2CO}-R[Phe(4-COOH)]D[Phe(3-Me)]Y(Carboxymethyl)[Bip]Y(Carboxymethyl)[Orn][dL][Dab][Cha]VTC[Dab][Aun]-OH; thioether N-14)
